Data set [1] in a line: Kinetic solubility of compound in HDM-PAMPA with buffer containing 5% DMSO at pH 1.2 incubated for 5 hrs by spectrophotometric analysis. In kind it is ADME. The settings on record: for solubility kinetic at 5 h: HDM-PAMPA buffer, pH 1.2, read-out: Kinetic_solubility; for Kinetic_solubility: pampa, pH 1.2, 5 h.
Data set [2] can be described thus: Thermodynamic solubility of compound in buffer containing KH2PO4/Na2HPO4 with 1% v/v DMSO at pH 6.8 incubated for 24 hrs by spectrophotometric analysis. In kind it is physicochemical. The settings on record: for solubility thermodynamic at 24 h: KH2PO4/Na2HPO4 buffer, pH 6.8, read-out: Therm_solubility; for Therm_solubility: buffer, pH 6.8, 24 h.
A short description of data set [3]: Apparent solubility of compound in fasted state simulated intestinal fluid at pH 6.5 by spectrophotometric analysis. Type of data set: physicochemical.
A short description of data set [4]: Thermodynamic solubility of compound in buffer containing KH2PO4/Na2HPO4 with 1% v/v DMSO at pH 7.4 incubated for 24 hrs by spectrophotometric analysis. In kind it is physicochemical. The settings on record: for solubility thermodynamic at 24 h: KH2PO4/Na2HPO4 buffer, pH 7.4, read-out: Therm_solubility.
A short description of data set [5]: Apparent solubility of compound in fed state simulated intestinal fluid at pH 5 by spectrophotometric analysis. Type of data set: physicochemical.
Data set [6] in a line: Thermodynamic solubility of compound in buffer containing HCl/KCl with 1% v/v DMSO at pH 1.2 incubated for 24 hrs by spectrophotometric analysis. Type of data set: physicochemical. As to conditions: for solubility thermodynamic at 24 h: HCl/KCl buffer, pH 1.2, read-out: Therm_solubility; for Therm_solubility: buffer, pH 1.2, 24 h.
A short description of data set [7]: Octanol/water partition coefficient, logP of compound by RP-UHPLC analysis. Type of data set: physicochemical.
Data set [8] is described as follows: Kinetic solubility of compound in HDM-PAMPA with buffer containing 5% DMSO at pH 6.8 incubated for 5 hrs by spectrophotometric analysis. The settings on record: for solubility kinetic at 5 h: HDM-PAMPA buffer, pH 6.8, read-out: Kinetic_solubility. In kind it is ADME.
Data set [9] is described as follows: Kinetic solubility of compound in HDM-PAMPA with buffer containing 5% DMSO at pH 7.4 incubated for 5 hrs by spectrophotometric analysis. Type of data set: ADME. The settings on record: read-out: Kinetic_solubility.
A short description of data set [10]: Solubility of the compound in water. Type of data set: physicochemical.
Data set [11] in a line: Ratio of compound kinetic solubility to clofibric acid kinetic solubility in HDM-PAMPA with buffer containing 5% DMSO at pH 6.8 incubated for 5 hrs by spectrophotometric analysis.
Data set [12] in a line: Ratio of compound kinetic solubility to gemfibrozil kinetic solubility in HDM-PAMPA with buffer containing 5% DMSO at pH 6.8 incubated for 5 hrs by spectrophotometric analysis.
Data set [13] is described as follows: Ratio of compound kinetic solubility to clofibric acid kinetic solubility in HDM-PAMPA with buffer containing 5% DMSO at pH 7.4 incubated for 5 hrs by spectrophotometric analysis.
The nature of data set [14]: Ratio of compound kinetic solubility to gemfibrozil kinetic solubility in HDM-PAMPA with buffer containing 5% DMSO at pH 7.4 incubated for 5 hrs by spectrophotometric analysis.

Here are results for 8 molecules from ChEMBL document CHEMBL4373673, “Druggability profile of stilbene-derived PPAR agonists: determination of physicochemical properties and PAMPA study” (Medchemcomm, 2019).

The structures appear in SMILES notation. In brackets after ≈: the same amount, converted by molar mass.

`Cc1ccc(C)c(OCCCC(C)(C)C(=O)O)c1` [GEMFIBROZIL]: the solubility kinetic at 5 h is 33.2 µg/mL (≈ 133 µM) in [1], over 120 µg/mL in data set [8] and over 120 µg/mL in data set [9]. In addition, the solubility thermodynamic at 24 h in [2] is over 25 µg/mL; in [4] it was over 25 µg/mL; in data set [6] it was 15.5 µg/mL (≈ 61.8 µM). Further, the solubility in data set [3] and in [5] was over 25 µg/mL each time. In addition, the logP in data set [7] came out at 4.9.

With `CC(C)(Oc1ccc(Cl)cc1)C(=O)O` [CLOFIBRIC ACID], the solubility kinetic at 5 h in data set [1], in data set [8] and in data set [9] was over 100 µg/mL each time. The solubility thermodynamic at 24 h in data set [2], in [4] and in [6] was over 50 µg/mL in each case. Further, the solubility in [3] and in data set [5] was over 50 µg/mL throughout. The same molecule gave a logP in data set [7] of 2.96.

Turning to `CC(C)(Oc1ccc(CCCOc2ccc(C(=O)/C=C/c3ccccc3)cc2)cc1)C(=O)O`, in data set [1], the Kinetic_solubility result is reported as “Insoluble(Bld)”. Also, the solubility thermodynamic at 24 h was found to be 16 µg/mL (≈ 35.9 µM) in data set [2] and 17.5 µg/mL (≈ 39.3 µM) in [4]. Further, the solubility in data set [3] is 19.6 µg/mL (≈ 44.2 µM); in data set [5], 17.8 µg/mL (≈ 39.9 µM). In addition, the Therm_solubility entry in data set [6] was “Insoluble(Bld)”. This molecule had a logP in data set [7] of 6.55. Also, the solubility kinetic at 5 h in data set [8] amounted to 68.4 µg/mL (≈ 154 µM); in [9] it was 67.6 µg/mL (≈ 152 µM).

Consider `CC(C)(Oc1ccc(CCCOc2ccc(/C=C/c3ccccc3)cc2)cc1)C(=O)O`, for which the solubility kinetic at 5 h stood at 0.89 µg/mL (≈ 2.14 µM) in [1], 44.2 µg/mL (≈ 106 µM) in data set [8] and 43 µg/mL (≈ 103 µM) in data set [9]. Also, the solubility thermodynamic at 24 h in data set [2] turned out to be 27.9 µg/mL (≈ 66.9 µM); in data set [4], 26.9 µg/mL (≈ 64.7 µM). The solubility in data set [3] is 24.8 µg/mL (≈ 59.6 µM); in data set [5], 13.8 µg/mL (≈ 33.3 µM). The Therm_solubility result in [6] was “Insoluble(Bld)”. Further, the logP in data set [7] was determined as 7.44.

Molecule `CCN(C)C(=O)Oc1cccc([C@H](C)N(C)C)c1` [RIVASTIGMINE] yielded a solubility in data set [10] of 2040 µg/mL (≈ 8150 µM).

For `CC(C)(CCCOc1ccc(/C=C/c2ccccc2)cc1)C(=O)O`, in [1], the Kinetic_solubility entry is reported as “Insoluble(Bld)”. Further, the Therm_solubility entry is recorded as “Insoluble(Bld)” in data set [2]; “Insoluble(Bld)” in data set [4] (buffer, pH 7.4, 24 h); “Insoluble(Bld)” in [6]. Moreover, the values for the solubility in data set [3] and in data set [5] were 8.7 µg/mL (≈ 26.8 µM) and 7.39 µg/mL (≈ 22.8 µM), respectively. The same molecule displayed a logP in data set [7] of 6.95. Moreover, the solubility kinetic at 5 h in data set [8] is 13.6 µg/mL (≈ 41.9 µM); in data set [9], 13 µg/mL (≈ 40.1 µM).

As for `CC(C)(Oc1ccc(CCOc2ccc(/N=N/c3ccccc3)cc2)cc1)C(=O)O`, the Ratio in data set [11], in [12], in data set [13] and in [14] was 2 to 3 in each case. Moreover, the Kinetic_solubility entry in data set [1] is on record as “Insoluble(Bld)”. For the same molecule, the solubility thermodynamic at 24 h in [2] stood at 13.9 µg/mL (≈ 34.5 µM); in data set [4], 25.5 µg/mL (≈ 62.9 µM). For the same molecule, the solubility in data set [3] was 63.5 µg/mL (≈ 157 µM); in data set [5], over 100 µg/mL. Also, the Therm_solubility result in data set [6] was “Insoluble(Bld)”. The molecule further yielded a logP in data set [7] of 6.63. The solubility kinetic at 5 h amounted to 300 µg/mL (≈ 741 µM) in data set [8] and 296 µg/mL (≈ 733 µM) in data set [9].

Take `COc1ccc(/C=C/c2ccc(OCCCC(C)(C)C(=O)O)cc2)cc1`: the Kinetic_solubility result in data set [1] is listed as “Insoluble(Bld)”; in data set [8] (pampa, pH 6.8, 5 h) it was “Insoluble(Bld)”. The Therm_solubility entry in [2] and in data set [6] was “Insoluble(Bld)” each time. Also, the solubility in [3] was 7.13 µg/mL (≈ 20.1 µM); in data set [5], 6.23 µg/mL (≈ 17.6 µM). The solubility thermodynamic at 24 h in data set [4] turned out to be 1.65 µg/mL (≈ 4.66 µM). This molecule also had a logP in data set [7] of 6.08. Also, the solubility kinetic at 5 h in data set [9] was determined as 7.32 µg/mL (≈ 20.7 µM).
